≈ marks a conversion by molar mass, not a printed value. Read-outs that look alike come from different tables or passages of the source. Numbered stars: 1 amine (or outer) side, 2 acyl side, 3 side chain; on linkers, the order of the positions; unused ones are H or OH. Bridge positions count the residues as written; N and C are the ends. Side chains are listed from the residue outwards. Peptide text beside a SMILES is read from it. * marks the point of attachment. C20 diacid = O=C(O)CCCCCCCCCCCCCCCCCCC(=O)*; γGlu = O=C(O)[C@H](CCC(=O)[*:2])N[*:1]
Tests used:
rat calcitonin receptor = target: T1, rat calcitonin receptor (Rattus norvegicus, UniProt P32214); test: ASSAY (VIII) binding to the rat calcitonin receptor; settings: Table 7, read-out: rCTR bind IC50
T1 construct: expressed in transfected cells; host or cells: BHK tk'ts 13 (transient, FuGENE 6), membranes
T1 sequence (P32214 25-479 isoform P32214-2 limits assumed): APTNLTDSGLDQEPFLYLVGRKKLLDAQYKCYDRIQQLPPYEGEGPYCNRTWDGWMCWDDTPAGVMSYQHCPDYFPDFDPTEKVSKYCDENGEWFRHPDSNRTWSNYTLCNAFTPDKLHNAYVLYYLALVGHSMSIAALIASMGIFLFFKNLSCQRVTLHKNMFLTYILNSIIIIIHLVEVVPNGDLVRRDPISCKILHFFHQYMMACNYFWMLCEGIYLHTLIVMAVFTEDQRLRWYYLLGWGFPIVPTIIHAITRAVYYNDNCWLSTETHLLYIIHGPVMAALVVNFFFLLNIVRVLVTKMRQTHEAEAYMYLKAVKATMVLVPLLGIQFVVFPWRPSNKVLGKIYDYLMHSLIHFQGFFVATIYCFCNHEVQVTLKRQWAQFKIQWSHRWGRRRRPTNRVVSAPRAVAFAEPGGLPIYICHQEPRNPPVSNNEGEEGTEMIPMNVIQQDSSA
Method in brief: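 Receptor source: membranes from transiently transfected BHK tk′ts 13 cells expressing rat calcitonin receptor, collected roughly 48 hours after transfection.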

[1] = target: T2, human amylin 3(a) receptor (human calcitonin receptor + RAMP-3) in BHK570 cells (Homo sapiens, UniProt O60896+P30988); test: ASSAY (II)a functional assay, human amylin receptor (CRE luciferase); type: cell-based
T2 construct: expressed in transfected cells
Method in brief: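 Functional agonism was measured by CRE-luciferase reporter luminescence in BHK cells bearing calcitonin receptor, or calcitonin receptor plus RAMP-3 as the amylin 3(a) receptor. Stimulation lasted 3 hours at 37° C.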

[2] = target: T3, rat amylin receptor (rat calcitonin receptor + rat RAMP 3) (Rattus norvegicus, UniProt P32214+Q9JJ73); test: ASSAY (VI) binding to the rat amylin receptor
T3 construct: expressed in transfected cells; host or cells: BHK tk'ts 13 (transient, FuGENE 6), membranes
T3 sequence (P32214 25-479 isoform P32214-2 limits assumed): T1 sequence (P32214 25-479 isoform P32214-2 limits assumed)
T3 sequence (Q9JJ73 23-147 partner): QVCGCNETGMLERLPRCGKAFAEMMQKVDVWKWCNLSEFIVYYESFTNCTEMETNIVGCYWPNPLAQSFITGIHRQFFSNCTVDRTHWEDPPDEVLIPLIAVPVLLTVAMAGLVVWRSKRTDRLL
Method in brief: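 The cell-membrane assay assessed binding at the rat amylin receptor. BHK tk′ts 13 cells were transfected transiently with rat calcitonin receptor, with FuGENE® 6 (Roche) as the transfection reagent, used per the manufacturer's recommendations. Approximately 48 hours after transfection the cells were harvested, and membranes were prepared for measuring binding.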

[3] = target: T4, human amylin receptor (membranes from Amylin 3(a)/CRE-luc cells) (Homo sapiens, UniProt O60896+P30988); test: ASSAY (V) binding to the human amylin receptor (SPA, 125I-rat amylin);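 note: competition binding of cell membranes (35 ng/µL) mixed with SPA beads in 384-well plates at 40 µL total volume, read by scintillation counting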
T4 construct: expressed in transfected cells
T4 sequence (P30988 25-474): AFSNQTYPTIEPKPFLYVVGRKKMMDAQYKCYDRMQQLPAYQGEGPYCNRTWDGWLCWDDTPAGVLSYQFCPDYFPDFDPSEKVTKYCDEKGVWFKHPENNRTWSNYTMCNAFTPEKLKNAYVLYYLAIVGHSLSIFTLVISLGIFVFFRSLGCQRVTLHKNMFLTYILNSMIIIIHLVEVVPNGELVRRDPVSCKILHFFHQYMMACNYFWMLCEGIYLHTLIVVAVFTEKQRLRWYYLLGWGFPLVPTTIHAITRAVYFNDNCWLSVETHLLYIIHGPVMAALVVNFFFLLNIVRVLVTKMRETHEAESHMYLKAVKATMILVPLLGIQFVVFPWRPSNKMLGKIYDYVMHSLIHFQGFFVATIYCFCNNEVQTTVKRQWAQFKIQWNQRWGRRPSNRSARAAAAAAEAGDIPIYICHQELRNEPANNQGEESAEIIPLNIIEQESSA
T4 sequence (O60896 24-148 partner): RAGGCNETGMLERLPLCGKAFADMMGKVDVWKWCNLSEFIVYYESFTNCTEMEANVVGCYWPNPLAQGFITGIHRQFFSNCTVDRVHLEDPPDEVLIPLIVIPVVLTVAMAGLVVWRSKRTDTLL

[4] = ASSAY (IV) determination of solubility; type: physicochemical
Method in brief: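 UPLC read-out of polypeptide concentration after centrifugation. Samples: aqueous polypeptide stock ([…]) + 100 mM buffer 1:1, glycylglycine pH 3.0–5.0 or bistrispropane pH 6.0–8.0; 18 h, RT.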

IC50 (rat calcitonin receptor): 196 nM
Ratio hCT/hAmylin funct. ([1]; hCTR funct. EC50 divided by hAmylin-R funct. EC50): 8.5
Ratio hCT/hAmylin funct. ([1]; hCTR funct. EC50 over hAmylin-R funct. EC50): 8.5
Ratio hCT/hAmylin funct. ([1]; human functional selectivity: hCTR funct. EC50 / hAmylin-R funct. EC50): 8.5
IC50 ([2]; Table 7, binding to rat amylin receptor, read-out: rAmylin-R bind IC50): 2.31 nM
Ratio rCT/rAmylin binding ([2]; Table 7, rat binding selectivity, rCTR IC50 / rAmylin-R IC50): 84.9
Ratio rCT/rAmylin binding ([2]; Table 7a (preferred compounds), rat binding selectivity, rCTR IC50 / rAmylin-R IC50): 84.9
Ratio rCT/rAmylin binding ([2]; ratio of rCTR bind IC50 to rAmylin-R bind IC50): 84.9
Ratio hCT/hAmylin binding ([3]; Table 5, selectivity, hCTR bind IC50 / hAmylin-R bind IC50): 46.5
Ratio hCT/hAmylin binding ([3]; Table 5a, selectivity, hCTR bind IC50 / hAmylin-R bind IC50): 46.5
Ratio hCT/hAmylin binding ([3]; Table 5b, selectivity, hCTR bind IC50 / hAmylin-R bind IC50): 46.5
Ratio hCT/hAmylin binding ([3]; Table 5c, selectivity, hCTR bind IC50 / hAmylin-R bind IC50): 46.5
Ratio hCT/hAmylin binding ([3]; Table 7, human binding selectivity, included for comparison): 46.5
Ratio hCT/hAmylin binding ([3]; Table 7a (preferred compounds), human binding selectivity, included for comparison): 46.5
Ratio hCT/hAmylin binding ([3]; ratio of human calcitonin receptor binding IC50 to human amylin receptor binding IC50): 46.5
solubility at 18 h ([4]; bistrispropane buffer, pH 6.5, read-out: Solubility pH 6.5 Concentration): ≥ 200 µM
solubility at 18 h ([4]; bistrispropane buffer, pH 7.5, read-out: Solubility pH 7.5 Concentration): 113 µM (≈ 519 µg/mL)
solubility at 18 h ([4]; bistrispropane buffer, pH 6.0, read-out: Solubility pH 6.0 Concentration): ≥ 200 µM
solubility at 18 h ([4]; bistrispropane buffer, pH 7.0, read-out: Solubility pH 7.0 Concentration): 162 µM (≈ 744 µg/mL)
solubility at 18 h ([4]; bistrispropane buffer, pH 8.0, read-out: Solubility pH 8.0 Concentration): 108 µM (≈ 496 µg/mL)
solubility at 18 h ([4]; glycylglycine buffer, pH 3.0, read-out: Solubility pH 3.0 Concentration): ≥ 200 µM
solubility at 18 h ([4]; glycylglycine buffer, pH 4.0, read-out: Solubility pH 4.0 Concentration): ≥ 200 µM
solubility at 18 h ([4]; glycylglycine buffer, pH 5.0, read-out: Solubility pH 5.0 Concentration): ≥ 200 µM
Compound: CC[C@H](C)[C@H](NC(=O)[C@H](C)NC(=O)CNC(=O)[C@H](Cc1ccccc1)NC(=O)[C@H](CC(N)=O)NC(=O)[C@@H]1CCCN1C(=O)[C@H](CO)NC(=O)[C@H](CO)NC(=O)[C@H](Cc1c[nH]cn1)NC(=O)[C@H](CCCNC(=N)N)NC(=O)[C@H](CC(C)C)NC(=O)[C@H](Cc1ccccc1)NC(=O)[C@H](CCC(=O)O)NC(=O)[C@H](C)NC(=O)[C@H](CC(C)C)NC(=O)[C@H](CCCNC(=N)N)NC(=O)[C@H](CCC(N)=O)NC(=O)[C@@H](NC(=O)[C@H](C)NC(=O)[C@@H]1CSSC[C@H](NC(=O)[C@@H](N)CCCCNC(=O)CC[C@H](NC(=O)CC[C@H](NC(=O)CCCCCCCCCCCCCCCCCCC(=O)O)C(=O)O)C(=O)O)C(=O)N[C@@H](CC(N)=O)C(=O)N[C@@H]([C@@H](C)O)C(=O)N[C@@H](C)C(=O)N[C@@H]([C@@H](C)O)C(=O)N1)[C@@H](C)O)C(=O)N1CCC[C@H]1C(=O)N[C@@H](CO)C(=O)N[C@@H](CO)C(=O)N[C@H](C(=O)N[C@@H](CC(N)=O)C(=O)N[C@H](C(=O)NCC(=O)N[C@@H](CCCNC(=N)N)C(=O)N[C@@H](CC(N)=O)C(=O)N[C@H](C(=O)N[C@@H](Cc1ccc(O)cc1)C(N)=O)[C@@H](C)O)C(C)C)[C@@H](C)O [Example 88] (H-K([γGlu-γGlu-C20 diacid])CNTATCATQRLAEFLRHSSPNFGAIPSSTNVGRNTY-NH2; disulfide 2-7)
